For 2 molecules, inhibition and IC50 results are on record in US5206252A, “Thiadiazolyl-amino derivatives of benzopyrans and indanes” (American Home Products Corporation, priority 1992, dated 1993).

Structures are written as SMILES. pIC50: −log10 of the molar value.

This assay has as its system Isolated Rat Bladder Strips. Put plainly: Inhibition of Contractions in Isolated Rat Bladder Strips (smooth muscle relaxing activity, 15 mM KCl-enhanced contractile activity). Also noted: species or system Sprague-Dawley rats. To be noted: for inhibition at 30 µM: Rattus norvegicus, maximum percentage inhibition of contractile activity, read-out: Inhibition of Force (%) at (X) μM. The source says: The smooth muscle relaxing activity of the compounds of this invention was established in accordance with standard pharmaceutically accepted test procedures in representative compounds as follows:
Sprague-Dawley rats (150-200 g) are rendered unconscious by CO2 asphyxiation and then euthanized by cervical dislocation. The bladder is removed into warm (37 deg.C.) physiological salt solution (PSS) of the following composition (mM): NaCl, 118.4; KCl, 4.7; CaCl2, 2.5; […]; NaHCO3, 24.9; KH2 PO4, 1.2; glucose, 11.1; EDTA, 0.023; gassed with […]; pH 7.4. The bladder is opened and then cut into strips 1-2 mm in width and 7-10 mm in length. The strips are subsequently suspended in a 10 ml tissue bath under an initial resting tension of 1.5 g. The strips are held in place by two surgical clips one of which is attached to fixed hook while the other is attached to an isometric force transducer. […] The carbachol is then washed out and the tissue allowed to relax to its resting level of activity. Following an additional 30 minute period of recovery an additional 15 mM KCl are introduced into the tissue bath. This increase in KCl concentration results in a large increase in the amplitude of spontaneous contractions (and initiation of contractions in previously quiescent strips) superimposed upon a small increase in basal tone. Following stabilization of this enhanced level of contractile activity, incremental increases in the concentration of test compound or vehicle are introduced into the tissue bath. Contractile activity is measured for each compound or vehicle concentration during the last min of a 30 min challenge.
Isometric force developed by the bladder strips is measured using a […] to elicit 50% inhibition of pre-drug contractile activity (IC50 concentration) is calculated from this concentration-response curve. The maximum percentage inhibition of contractile activity evoked by a test compound is also recorded for concentrations of test compound<or equal to 30 uM.

For `CC1(C)Oc2ccc(OC(F)(F)F)cc2[C@@H](NC2=NS(=O)(=O)N=C2N)[C@@H]1O` [Example 2, (-)-(3S,4R)-4-(4-Amino-1,1-dioxo-[1,2,5]thiadiazol-3-ylamino)2,2-dimethyl-6-trifluoromethoxy-chroman-3-ol], the inhibition (commonly the change of the read-out against control, counted positive when it falls) at 30 µM worked out at 33%.

Turning to `CNC1=NS(=O)(=O)N=C1N[C@@H]1c2cc(OC(F)(F)F)ccc2OC(C)(C)[C@H]1O` [Example 3, (-)-(3S,4R)-2,2-Dimethyl-4-(4-methylamino-1,1-dioxo-[1,2,5]-thiadiazol-3-ylamino)-6-trifluoromethoxy-chroman-3-ol], the inhibition at 30 µM worked out at 95%. Moreover, the pIC50 (0.5 h, isolated rat bladder strips, 15 mM KCl, last min of a 30 min challenge, read-out: IC50 (concentration required to elicit 50% inhibition of pre-drug contractile activity)) was 5.32.
